Reference: patent publication US11890288B2, “Sulfonamide or sulfinamide compound having effect of inducing BRD4 protein degradation and pharmaceutical use thereof” (MITSUBISHI TANABE PHARMA CORPORATION, priority 2020, dated 2024)
Like-named read-outs stand apart in the source and are kept apart here. Marks after values point to notes of the source that are not given here.

Tests used:
[1] = tested on: human prostate cancer LNCaP cells; test: Cytotoxic action on LNCaP cells (WST-8, 96 hr); assay type: cell-based; conditions: 96 hr culture
Method in brief: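 IC50 values reflect 50% cell survival relative to untreated cells, interpolated linearly between the two concentrations that bracket it. Survival was read by WST-8 after 96 hr of compound treatment of cells grown in 10% FBS/RPMI1640 at 37° C.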

[2] = tested on: MDA-MB-436 w/o2 cells; test: Cytotoxic action on MDA-MB-436 w/o2 cells that acquired resistance to conventional BRD4 degraders (WST-8, 96 hr); assay type: cell-based, human; conditions: for IC50: MDA-MB-436 w/o2 cells, 96 hr; for resistance: IC50 in MDA-MB-436 w/o2 cells divided by IC50 in MDA-MB-436 cells; for resistance of MDA-MB-436 w/o2 cells to the substance (in words): MDA-MB-436 w/o2 versus MDA-MB-436 cells
Experimental: (§1) The cytotoxic action of the compound of the present invention against cancer cells that acquired resistance to conventional BRD4 protein degradation inducing agents was evaluated in vitro. In this experiment, ARV-771 (Proc Natl Acad Sci USA. volume 113, pages 7124-7129 (28 Jun. 2016)) and MZ1 (ACS Chem Biol. Volume 10, pages 1770-1777 (21 Aug. 2015)), in which a ligand for VHL and BRD4 protein inhibitor are linked, were used as a conventional BRD4 protein degradation inducing agent serving as a comparison control. Human breast cancer MDA-MB-436 cells and MDA-MB-436 cells that acquired resistance to conventional BRD4 protein degradation inducing agents (MDA-MB-436 w/o2 cells) were suspended in 10% FBS/RPMI1640, seeded in a 96 well plate and cultured at 5% CO2, 37° C. overnight. A test compound dissolved in DMSO was diluted with 10% FBS/RPMI1640 and added and the cells were further cultured for 96 hr. After culturing, the viable cell number was measured using a cell number measurement WST-8 kit (Kishida Chemical Co., Ltd.). As a control, the measurement was performed under conditions free of the test compound. The cytotoxic activity of the compound of the present invention against each cell is shown in IC50 value in Table 4. The IC50 value is a concentration of the compound showing 50% cell survival rate when the cell survival rate thereof under compound untreated condition is 100%. It was calculated from the straight line connecting the cell survival rate at two points enclosing the 50% cell survival rate and the compound concentration. In addition, the tolerance (fold) was calculated by dividing the IC50 value in MDA-MB-436 w/o2 cells by the IC50 value in MDA-MB-436 cells.

[3] = target: T1, BRD4 protein (Homo sapiens (Human), UniProt O60885); test: BRD4 protein degradation inducing action in LNCaP cells (immunofluorescence, 6 hr); assay type: cell-based; conditions: anti-BRD4 fluorescence intensity
Method in brief: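 LNCaP cells in 10% FBS/RPMI1640 exposed to compound for 6 hr, fixed, permeabilized and immunostained for BRD4 with Alexa Fluor 546 secondary; fluorescence (ex 560, em 572 nm) read by imaging. DC50 = concentration giving 50% of untreated signal, interpolated linearly between the two bracketing points.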

[4] = tested on: Human breast cancer MDA-MB-436 cells; test: Cytotoxic action on MDA-MB-436 cells (WST-8, 96 hr); assay type: cell-based
Experimental: as §1

[5] = target: T1, BRD4 protein; test: BRD4 protein degradation inducing action in MDA-MB-436 cells (Western blot, 6 hr); assay type: cell-based; conditions: MDA-MB-436 cell
Experimental: (§2) The BRD4 protein degradation inducing action of the compound of the present invention on the cancer cells that acquired resistance to conventional BRD4 protein degradation inducing agents was evaluated in vitro. In this experiment, ARV-771 and MZ1, in which a ligand for VHL and BRD4 protein inhibitor are linked, were used as a conventional BRD4 protein degradation inducing agent serving as a comparison control. Human breast cancer MDA-MB-436 cells and MDA-MB-436 cells that acquired resistance to conventional BRD4 protein degradation inducing agents (MDA-MB-436 w/o2 cells) were suspended in 10% FBS/RPMI1640, seeded in a 6 well plate and cultured at 5% CO2, 37° C. overnight. A test compound dissolved in DMSO was diluted with 10% FBS/RPMI1640 and added and the cells were further cultured for 6 hr. After culturing, the cells were lysed in a solubilizing solution (10 mM Tris-HCl, pH 7.4, 0.1% NP-40, 0.1% sodium deoxycholate, 0.1% SDS, 0.15 M NaCl, 1 mM EDTA, 10 μg/mL aprotinin). The solution was electrophoresed and proteins in acrylamide gel were transferred to Immobilon PVDF membrane using a semi-dry transfer device. […] After immersing in a secondary antibody solution for 1 hr, the object protein on the membrane was detected using ECL Prime Western Blotting Detection System or ECL Select Western Blotting Detection System (GE Healthcare).

[6] = target: T1, BRD4 protein; test: BRD4 protein degradation inducing action in MDA-MB-436 w/o2 cells (Western blot, 6 hr); assay type: cell-based; conditions: MDA-MB-436 w/o2 cell
Experimental: as §2

[7] = tested on: human acute myeloid leukemia MV-4-11 cell transplanted mouse; test: Antitumor effect of 1 week intermittent administration to MV-4-11 cell transplanted mouse (tail vein, days 1 and 8); assay type: in vivo; conditions: tumor weight on day 15
Experimental: The in vivo antitumor effect of the compound of the present invention was studied using human acute myeloid leukemia MV-4-11 cell transplanted mouse. MV-4-11 cells were subcutaneously transplanted into the inguinal region of male, 6-week-old BALB/c nude mouse (5×10^6 cells/mouse). The compound of the present invention was administered into the tail vein on days 1 and 8 from the time point when the assumed tumor volume determined from ½ab^2 (a is major axis and b is minor axis of tumor) reached about 200 mm^3 (day 1). The control group was administered with a solvent, 10% Kolliphor ELP/5% ethanol/85% saline solution. On day 15, the tumor was isolated, the weight was measured, and the tumor growth inhibitory rate IR (%) was calculated by the following formula. tumor growth inhibitory rate IR (%)={1−(average tumor weight of administration group/average tumor weight of nonadministration control group)}×100(%)

degradation of BRD4 protein (Western blot, FIG. 1) [5] | degradation of BRD4 protein (Western blot, FIG. 1) [6] | Compound | IC50 [1] [nM] | IC50 ([2]; Homo sapiens) [nM] | resistance [2] [fold] | DC50 [3] [nM] | IC50 ([4]; Homo sapiens) [nM] | IC50 [2] [nM] | resistance of MDA-MB-436 w/o2 cells to the substance (in words) [2] | IC50 [4] [nM] | tumor growth inhibitory rate ([7]; 4 mg/kg/day) | tumor growth inhibitory rate ([7]; 12.5 mg/kg/day)
induced degradation of BRD4 protein | did not induce degradation | Cc1ncsc1-c1ccc(CNC(=O)[C@@H]2C[C@@H](O)CN2C(=O)[C@@H](NC(=O)COCCOCCOCCNC(=O)C[C@@H]2N=C(c3ccc(Cl)cc3)c3c(sc(C)c3C)-n3c(C)nnc32)C(C)(C)C)cc1 [MZ1, reference compound] | – | – | >26 | – | – | > 50000 | showed resistance | 1900 | – | –
induced degradation of BRD4 protein | did not induce degradation | Cc1ncsc1-c1ccc([C@H](C)NC(=O)[C@@H]2C[C@@H](O)CN2C(=O)[C@@H](NC(=O)COCCCOCCNC(=O)C[C@@H]2N=C(c3ccc(Cl)cc3)c3c(sc(C)c3C)-n3c(C)nnc32)C(C)(C)C)cc1 [ARV-771, reference compound] | – | – | 150 | – | – | 860 | showed resistance | 5.6 | – | –

The remaining lines, values behind:

Compound | degradation of BRD4 protein (Western blot, FIG. 1) [5] | degradation of BRD4 protein (Western blot, FIG. 1) [6] | IC50 [1] [nM] | IC50 ([2]; Homo sapiens) [nM] | resistance [2] [fold] | DC50 [3] [nM] | IC50 ([4]; Homo sapiens) [nM] | IC50 [2] [nM] | resistance of MDA-MB-436 w/o2 cells to the substance (in words) [2] | IC50 [4] [nM] | tumor growth inhibitory rate ([7]; 4 mg/kg/day) | tumor growth inhibitory rate ([7]; 12.5 mg/kg/day)
COC(=O)C[C@@H]1N=C(c2ccc(-c3ccc(C(=O)NCc4ccc(S(=O)(=O)Nc5ccc(C)c6c(C#N)c[nH]c56)cc4)nc3)cc2)c2c(sc(C)c2C)-n2c(C)nnc21 [Example 53, methyl [(6S)-4-(4-{6-[({4-[(3-cyano-4-methyl-1H-indol-7-yl)sulfamoyl]phenyl}methyl)carbamoyl]pyridin-3-yl}phenyl)-2,3,9-trimethyl-6H-thieno[3,2-f][1,2,4]triazolo[4,3-a][1,4]diazepin-6-yl]acetate] | – | – | 0.16 | 0.32 | 1.5 | 0.078 | 0.21 | – | – | – | – | –
COC(=O)C[C@@H]1N=C(c2ccc(-c3ccc(C(=O)NCc4ccc(S(=O)(=O)Nc5ccc(C)c6c(C#N)c[nH]c56)cc4)cc3Cl)cc2)c2c(sc(C)c2C)-n2c(C)nnc21 [Example 47, methyl [(6S)-4-{2′-chloro-4′-[({4-[(3-cyano-4-methyl-1H-indol-7-yl)sulfamoyl]phenyl}methyl)carbamoyl][1,1′-biphenyl]-4-yl}-2,3,9-trimethyl-6H-thieno[3,2-f][1,2,4]triazolo[4,3-a][1,4]diazepin-6-yl]acetate] | – | – | 0.46 | – | – | 0.3 | – | – | – | – | 32* % | 68** %
CCc1ccc(NS(=O)(=O)c2ccc(CNC(=O)c3ccc(-c4ccc(C5=N[C@@H](CC(=O)OC)c6nnc(C)n6-c6sc(C)c(C)c65)cc4)cc3)cc2)c2[nH]cc(C#N)c12 [Example 43, methyl [(6S)-4-{4′-[({4-[(3-cyano-4-ethyl-1H-indol-7-yl)sulfamoyl]phenyl}methyl)carbamoyl][1,1′-biphenyl]-4-yl}-2,3,9-trimethyl-6H-thieno[3,2-f][1,2,4]triazolo[4,3-a][1,4]diazepin-6-yl]acetate] | – | – | 0.23 | 0.42 | 1.3 | 0.12 | 0.34 | – | – | – | – | –
COC(=O)C[C@@H]1N=C(c2ccc(-c3ccc(C(=O)NCc4ccc(S(=O)(=O)Nc5ccc(C)c6c(C#N)c[nH]c56)cc4)c(F)c3F)cc2)c2c(sc(C)c2C)-n2c(C)nnc21 [Example 74, methyl [(6S)-4-{4′-[({4-[(3-cyano-4-methyl-1H-indol-7-yl)sulfamoyl]phenyl}methyl)carbamoyl]-2′,3′-difluoro[1,1′-biphenyl]-4-yl}-2,3,9-trimethyl-6H-thieno[3,2-f][1,2,4]triazolo[4,3-a][1,4]diazepin-6-yl]acetate] | – | – | 0.21 | – | – | 0.092 | – | – | – | – | 43** % | 94** %
CCc1ccc(NS(=O)(=O)c2ccc([C@@H](C)NC(=O)c3cnc(-c4ccc(C5=N[C@@H](CC(=O)OC)c6nnc(C)n6-c6sc(C)c(C)c65)cc4)cn3)cc2)c2[nH]cc(C#N)c12 [Example 106, methyl {(6S)-4-[4-(5-{[(1R)-1-{4-[(3-cyano-4-ethyl-1H-indol-7-yl)sulfamoyl]phenyl}ethyl]carbamoyl}pyrazin-2-yl)phenyl]-2,3,9-trimethyl-6H-thieno[3,2-f][1,2,4]triazolo[4,3-a][1,4]diazepin-6-yl}acetate] | – | – | 0.079 | – | – | 0.059 | – | – | – | – | 96** % | 98** %
COC(=O)C[C@@H]1N=C(c2ccc(-c3ccc(C(=O)NCCc4ccc(S(=O)(=O)Nc5ccc(C)c6c(C#N)c[nH]c56)cc4)cc3F)cc2)c2c(sc(C)c2C)-n2c(C)nnc21 [Example 46, methyl [(6S)-4-{4′-[(2-{4-[(3-cyano-4-methyl-1H-indol-7-yl)sulfamoyl]phenyl}ethyl)carbamoyl]-2′-fluoro[1,1′-biphenyl]-4-yl}-2,3,9-trimethyl-6H-thieno[3,2-f][1,2,4]triazolo[4,3-a][1,4]diazepin-6-yl]acetate] | – | – | 0.19 | 0.26 | 1.3 | 0.11 | 0.2 | – | – | – | – | –
